These results are taken from patent US8642656B2, “Calixarene-based peptide conformation mimetics, methods of use, and methods of making” (priority 2004, dated 2014).

pIC50: −log10 of the molar value. “Also recorded” adds a separate entry of the source. Read-outs that look alike come from different tables or passages of the source. Bounds are passed on as bounds.

The subject of test [1] is endothelial cell (EC). Kind of test: EC Proliferation Assay, [3H]thymidine incorporation (Example 36, Table 1). It is filed as cell-based. The note with it: Table 1 and FIG. 3. The protocol:
Human umbilical vein derived EC(HUVEC) were harvested from normal human umbilical cords by perfusion with 0.125% trypsin/EDTA as described in Groenewegen et al., J. Exp. Med. 164, 131-143 (1986). For determination of quiescent EC phenotype isolated ECs were immediately fixed in 1% paraformaldehyde. Human microvascular ECs (MVECs) were isolated. ECs were cultured in fibronectin coated tissue culture flasks in culture medium (RPMJ-1640 with 20% human serum (HS), supplemented with 2 mM glutamine and 100 U/ml penicillin and 0.1 mg/ml streptomycin).
EC proliferation was measured using a [^3H]thymidine incorporation assay. ECs were seeded at 5000 cells/well in flatbottomed tissue culture plates and grown for 3 days, in the absence or presence of regulators, in culture medium. During the last 6 hours of the assay, the culture was pulsed with 0.5μ Ci [methyl-^3H]thymidine/well.
(Incorporation of labelled thymidine or its analogues reports DNA synthesis.)

Test [2] relates to LPS from E. coli serotype 0111:B4. Description: LPS neutralization assay (Limulus amoebocyte lysate, QCL-1000). The note with it: read-out: IC50 values (μM) for LPS binding, E. coli 0111:B4. The test is classed as biochemical. The method in brief:
(§1)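 In vitro quantitative LAL test: compounds inhibiting activation by 0.04 units LPS reduce yellow pNA formation (405-410 nm). 0.04 units equals 0.01 ng P. aeruginosa or E. coli 0111:B4 LPS and 0.03 ng S. typhimurium or S. marcascens LPS. Sigmoidal fits yield IC50.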

The test system of test [3] is LPS from E. coli serotype 055:B5. Described as above. The test is classed as biochemical. The method in brief: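 Absorbance at 405-410 nm tracks pNA released from a synthetic substrate by LPS-activated lysate enzyme. Compounds were titrated against 0.04 units of each LPS. IC50 values derive from sigmoidal curve fitting.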
The test system of test [4] is LPS from P. aeruginosa. The description is as above. It is filed as biochemical, Pseudomonas aeruginosa. The note with it: read-out: IC50 values (μM) for LPS binding, P.a. The gist of the method:
as §1

Test [5] relates to LPS from S. typhimurium. Described as above. The test is classed as biochemical, Salmonella typhimurium. The note with it: read-out: IC50 values (μM) for LPS binding, Salmonella. The gist of the method: as §1
In test [6] the test system is LPS from S. marcascens. The test is described as above. The test is classed as biochemical, Serratia marcascens. The note with it: read-out: IC50 values (μM) for LPS binding, Serratia. The method in brief:
as §1

Test [7] has as its system bFGF-stimulated HUVEC. Description: EC proliferation, [3H]-thymidine incorporation, bFGF-stimulated HUVEC (Example 48). It is filed as cell-based, human. The settings on record: for pIC50: bFGF-stimulated HUVEC, highest dose tested 25 μM; for activity as anti-angiogenic agents, ranking in words: library of 23 compounds. On the procedure:
Proliferation is expressed as mean counts per minute (cpm) of quadruplicate cultures in three independent experiments (±SEM). […] Human umbilical vein derived EC (HUVEC) were harvested from normal human umbilical cords by perfusion with 0.125% trypsin/EDTA. Harvested HUVECs were cultured in gelatin coated tissue culture flasks and subcultured 1:3 once a week in culture medium (RPM1-1640 with 20% human serum (HS), supplemented with 2 mM glutamine and 100 U/mL penicillin and 0.1 mg/mL streptomycin). Statistical analysis was performed by using the Student's t-test.

For test [8], the system named is MA148 human ovarian carcinoma. Kind of test: Proliferation of MA148 tumor cells. The test is classed as cell-based. The settings on record: read-out: IC50 against MA148 tumor cells.
Test [9] deals with B16F10 tumor cells. Kind of test: Proliferation of B16F10 tumor cells. The test is classed as cell-based, murine.
Test [10] relates to HUVEC. Kind of test: EC migration, wound healing assay. The note with it: 25 μM. The test is classed as cell-based, human. On the procedure:
EC migration was measured in the wound healing assay. HUVEC were cultured in triplicate on a 1-mg/ml fibronectin coat in a 24-well tissue culture plate. Cells were grown for 3 days until confluence. When confluent, a wound was made in the well, using a blunt glass pipette. The medium was replaced with medium containing 10 ng/ml bFGF with or without 25 μM compound and at 0, 2, 4, 6, and 8 hours, the wound width was measured at four different predefined places. Photographs were made using an inverted microscope and a Contax 167 MT 35 mm camera.

The subject of test [11] is chorioallantoic membrane (CAM) vasculature. Kind of test: Chorioallantoic membrane (CAM) assay. The note with it: 25 μM daily, day 10 to 13. The test is classed as in vivo, chicken. The protocol:
Fertilized Lohman-selected white leghorn eggs were incubated for 3 days at 37° C. and 55% relative humidity and rotated once every hour. On day 3 a rectangular window (1 cm×2 cm) was made in the eggshell. The window was covered with tape to prevent dehydration. The window allowed undisturbed observation of the developing vasculature of the CAM. On day 7 a silicon ring (10 mm diameter) was placed on the CAM to allow local drug administration within the ring. Compounds were applied daily in aliquots of 65 μl (25 μM) from day 10 to day 13. On day 14 the CAMs were photographed.

The subject of test [12] is MA148 tumor. Kind of test: TUNEL staining for total cell apoptosis, MA148 tumors. It is filed as in vivo, mice. The note with it: mean ± standard error, 20 images. On the procedure:
(§2) To assess the extent of total cell apoptosis, tumor tissue sections were stained by using the TUNEL (terminal deoxyribonucleotidyl transferase-mediated dUTP-nick-end labeling) assay, which was performed according to the manufacturer's instructions (In situ cell death detection kit, fluorescein; TUNEL, Roche). After 1-hour incubation at room temperature, slides were washed with PBS and immediately imaged using an Olympus BX-60 fluorescence microscope at 200× magnification.

In test [13] the test system is B16F10 tumor. Description: TUNEL staining for total cell apoptosis, B16F10 tumors. It is filed as in vivo, mice. The settings on record: B16F10, 10 mg/kg; mean ± standard error, 20 images. On the procedure: as §2
Setting [14] is: Table 3, errors estimated ±30%, read-out: IC50 values (μM) for LPS binding, E. coli 055:B5.

The term IC50 denotes the concentration needed to halve the response being measured. In general, pIC50 refers to −log10 of the IC50, conventionally taken in molar units. As for “5,11,17,23-Tetra-tert-butyl-25,27-bis(2-guanidinoethoxy)-26,28-dihydroxy calix[4]arene trifluoroacetic acid salt [Compound 27]”, the “antiangiogenic activity (in words)” value in test [1] (trifluoroacetic acid salt) is given as “excellent antiangiogenic activity; also recorded: exceptional antiangiogenic activity”. In addition, the IC50 is greater than 5 µM in [2] (Table 3, errors estimated ±30%); greater than 5 µM in test [3] (setting [14]); greater than 5 µM in [4] (Table 3, errors estimated ±30%); 4.4 µM in [5] (Table 3, errors estimated ±30%); greater than 5 µM in test [6] (Table 3, errors estimated ±30%). In addition, the negative logarithm of the IC50 (pIC50) is 5.10 in [7], 5.52 in test [8] and 5.00 in test [9] (read-out: IC50 against B16F10 tumor cells). Besides, the “activity as anti-angiogenic agents, ranking in words” value in test [7] is recorded as “most active as anti-angiogenic agents”. Besides, the “effect on EC migration, wound assay (in words)” value in [10] is “as effective as βpep-25 and more effective than 40”. Also, in test [11], the “angiogenesis inhibition in CAM assay (in words)” value was “angiogenesis is inhibited”. The Apoptosis is 2418 ± 72 pixel counts per image in [12] (MA148, 2.7 mg/kg); 2333 ± 173 pixel counts per image in test [12] (MA148, 10 mg/kg); 2357 ± 103 pixel counts per image in [13].

Consider `CN(C)CCNC(=O)COc1c2cccc1Cc1cccc(c1OCC(=O)NCCN(C)C)Cc1cccc(c1OCC(=O)NCCN(C)C)Cc1cccc(c1OCC(=O)NCCN(C)C)C2` [Compound 40], for which the results for the “antiangiogenic activity (in words)” value in test [1] and in test [1] (listed as KM0118 (40)) were “exceptional antiangiogenic activity” and “excellent antiangiogenic activity”, respectively. Besides, the IC50 is greater than 5 µM in test [2] (Table 2); greater than 5 µM in test [2] (Table 3, errors estimated ±30%); 3.4 µM in [3] (Table 2, read-out: IC50 values (μM) for LPS binding, E. coli 055:B4); 3.4 µM in test [3] (setting [14]); greater than 5 µM in [4] (Table 2); greater than 5 µM in test [4] (Table 3, errors estimated ±30%). For the same compound, the IC50 in [5] (Table 2) is greater than 5 µM; in test [5] (Table 3, errors estimated ±30%) it was greater than 5 µM; in test [6] (Table 2) it was greater than 5 µM; in [6] (Table 3, errors estimated ±30%) it was greater than 5 µM. Also, the pIC50 in [7] is 5.70; in test [8], 6.00. Besides, in test [7], the “activity as anti-angiogenic agents, ranking in words” value was “most active as anti-angiogenic agents”. Besides, in test [9], the “IC50 against B16F10 tumor cells” value is “neither demonstrated activity”. Besides, the “angiogenesis inhibition in CAM assay (in words)” value in [11] is recorded as “angiogenesis is inhibited”. Besides, the Apoptosis in test [12] (MA148, 2.4 mg/kg) amounted to 2919 ± 144 pixel counts per image; in test [12] (MA148, 10 mg/kg), 2323 ± 171 pixel counts per image; in test [13], 2807 ± 140 pixel counts per image.
